One experiment concerns the target T1, ZDHHC5 (Homo sapiens, UniProt Q9C0B5).
T1 construct: protein fragment 60-148aa expressed using Yeast
As to the kind of experiment: microscale thermophoresis (MST) with labeled ZDHHC5 fragment. It is filed as binding. (MST reads how a fluorescent partner responds to local heating, with and without ligand.)

Experiment [1] concerns the target T2, ZDHHC5 protein fragment (60-148aa), ZDHHC5's substrate binding domain (UniProt Q9C0B5 60-148, RED-NHS 2nd Generation dye label where it was the labeled partner (assay without Lomitapide); unlabeled in the assay with Lomitapide).
T2 construct: also called ZDHHC5 substrate domain; source: expressed using Yeast; labeled and purified with the labeling kit
As to the kind of experiment: MST; in the presence of 25 uM Lomitapide: 20 nM labeled SSTR5 and 25 uM Lomitapide mixed with unlabeled ZDHHC5 in 16 serial concentrations (maximum 200 nM), RT, 1.05*PBS. Conditions: both partners purified.

Experiment [2] has as its target T2, ZDHHC5 protein fragment (60-148aa), …. As to the kind of experiment: MST; 20 nM labeled ZDHHC5 mixed with unlabeled SSTR5 in 16 serial concentrations (maximum 200 nM), RT, 1.05*PBS; Monolith NT.115, LED 20%, medium MST power. Conditions: both partners purified.

Ends that are not written are not given here.

T2 sequence (Q9C0B5 60-148): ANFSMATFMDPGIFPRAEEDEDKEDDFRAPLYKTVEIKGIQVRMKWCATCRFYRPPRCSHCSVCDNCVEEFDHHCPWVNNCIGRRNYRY
T1 sequence (Q9C0B5 60-148): as above

As for `O=C(NC1CCN(CCCCC2(C(=O)NCC(F)(F)F)c3ccccc3-c3ccccc32)CC1)c1ccccc1-c1ccc(C(F)(F)F)cc1` [Lomitapide], the dissociation constant Kd at ZDHHC5 was found to be 509 nM. Same read-out and setting: with `CCCCCCCCCCCCCCCC(=O)O` [palmitic acid] the figure was 88 nM.

B1: SSTR5 protein fragment (cytoplasmic tail 307-364aa) (domain or fragment, UniProt P35346 307-364, looked up)
chain: LSDNFRQSFQKVLCLRKGSGAKDADATEPRPDRIRQQQEATPPAHRAAANGLMQTSKL
modifications: also: RED-NHS dye label in the labeled-partner assay, site not given here
notes: also called SSTR5 (307-362 aa); SSTR5 cytoplasmic tail
For the molecule B1, the results for the Kd in experiment [1] and in experiment [2] were 22.5 nM and 2.06 nM, respectively.

As a reminder, the Kd is a measure of binding affinity in units of concentration.

(Values after paper PMC9922277, “Repositioning Lomitapide to block ZDHHC5-dependant palmitoylation on SSTR5 leads to anti-proliferation effect in preclinical pancreatic cancer models” (Cell Death Discovery, 2023).)
